This is an account of results in patent US20160082082A1, “USE OF THERAPEUTIC PEPTIDES FOR THE TREATMENT AND PREVENTION OF CANCER” (ARIZONA CANCER THERAPEUTICS L.L.C., priority 2008, published 2016).

Experiment [1] deals with T1, EGFR (Mus musculus, UniProt Q01279).
T1 construct: we generated protein lysates from tumors of MMTV-pyV mT animals injected with EGF and peptide; from tissue; host or cells: mammary gland tumours of MMTV-pyV mT mice
Kind of experiment: Immunoblot of tumor lysates after EGF and peptide injection. It is filed as in vivo, MMTV-pyV mT mice. To be noted: EGF and peptide 30 minutes prior to sacrifice, after 21 day treatment. Here is the method: (§1) FIGS. 6A-6B. PMIP is associated with reduced Mud 1 expression. FIG. 6A) A representative MMTV-pyV mT msPMIP (P) treated mouse and a PTD4 mouse (C) were each injected 30 minutes prior to sacrifice with epidermal growth factor (1 μg/g body weight) and with peptide. Following sacrifice the tumors were collected and protein lysates were generated. Protein (50 μg) was separated by SDS-PAGE, transferred and immunoblotted for expression of phosphotyrosine (PY99), EGFR (1005), Muc1 (CT2), and β-actin (AC-15). FIG. 6B) Lysates from MDA-MD-231 xenograft tumors (not treated with EGF; described in […]) were similarly analyzed to determine levels of EGFR and MUC1 protein expression. Relative protein levels of Muc1 were measured by densitometry and graphed (Muc1/β-actin, ANOVA, *p=0.014). Molecular weights are shown on the right. IB=immunoblot. White lines through blots indicate same gel and exposure but were non-contiguous.
To determine if msPMIP was affecting EGF-dependent degradation of EGFR, we generated protein lysates from tumors of MMTV-pyV mT animals injected with EGF and peptide 30 minutes prior to animal sacrifice (after a standard 21 day drug treatment).

In experiment [2] the test system is MUC1. The experiment can be described thus: Immunoblot of xenograft tumor lysates for MUC1. To be noted: MDA-MB-231 xenograft model. It counts as in vivo, scid mice (MDA-MB-231 xenograft). Here is the method:
as §1
(§2) To determine if msPMIP blocked interaction between Muc1 and β-catenin, we began by establishing levels of Muc1 protein expression in the tumor lysates. […] While the mechanism of this loss is unknown, it would certainly result in a loss of Muc1-dependent oncogenic signaling.
For orientation: In western blotting, separated proteins are transferred to a membrane and probed.

Experiment [3] deals with Muc1. Kind of experiment: Immunoblot of transgenic tumor lysates for Muc1. It is filed as in vivo, MMTV-pyV mT mice. The following applies: MMTV-pyV mT model. The method, then:
as §1, §2

For experiment [4], the system named is MMTV-pyV mT induced mammary gland tumors. The experiment can be described thus: MMTV-pyV mT transgenic mouse spontaneous breast cancer. It counts as in vivo, mice. The method, then: FIGS. 4A-4D. […] FIG. 4A) MMTV-pyV mT transgenic mice were injected with FITC-msPMIP (50 μg/g body weight), sacrificed four hours later and various tissues visualized using fluorescence microscopy. FITC-msPMIP localization in the mouse mammary gland tumors is shown (2.5× and 8×). FIG. 4B) Mammary gland tumors (>0.5 cm in diameter) were allowed to develop and mice were injected daily (50 μg/g body weight, 21 day treatment, intraperitoneal (i.p.) injection, 1× per day) with either msPMIP (7 mice) or PTD4 (6 mice). At the end of treatment, animals were sacrificed and proteins lysates made of the tumors for later analysis. […] Numbers above data are number of tumors that meet the size criteria over the total potential tumor sites.
MMTV-pyV mT mice (33), obtained from Jackson Laboratories) entered into study upon the development of tumors that measured ≧0.5 cm in at least one diameter. Only mice greater than seven weeks of age were included in the study and mice that developed fluid cysts were excluded. Animals were injected i.p. with 50 μg/g body weight of msPMIP or PTD4 once daily for 21 days. Each of ten mammary glands were measured using calipers every two days, and measurements were used to determine tumor volume based on the formula a^2×b/2, with a being the smaller diameter and b being the larger diameter. After treatment for 21 days, mice were sacrificed by CO2 inhalation and tissues resected. Several msPMIP treated mice were injected with FITC-msPMIP (50 μg/g body weight) one or four hours prior to sacrifice and intact tissues were visualized using a fluorescence MZFLIII Leica dissection microscope.

Turning to “msPMIP: mouse PMIP, SEQ ID NO: 18: mouse Muc1 mimetic peptide in tandem with PTD4 protein transduction domain (YARAAARQARAPYEEVSAGNGSSSLS; fusion protein)”, in experiment [1], the “expression of EGFR in tumor lysates” value is reported as “striking reduction” and the “phosphotyrosine in tumor lysates” value was “striking reduction”. The “Muc1 protein expression in tumor lysates” value in experiment [2] was “induced a loss of Muc1 protein expression”. For the same substance, in experiment [3], the “Muc1 protein expression in tumor lysates” value is “induced a loss of Muc1 protein expression”. Moreover, in experiment [4] (50 μg/g i.p. daily, 21 days), the “number of tumors sized 100-300 mm^3, end vs beginning of treatment” value is recorded as “remained the same”; the “tumors larger than 100 mm^3 (of possible tumor sites)” value came to 27%; the “tumors that grew larger than 500 mm^3 by the end of the study” value came out at 1%. For the same substance, in experiment [4] (21 day treatment, PTD4 n=60, PMIP n=70 tumor sites), the “number of established tumors that completely regressed” value was “four”. Moreover, in experiment [4] (during drug treatment, p=0.0045), the “tumor initiation (percent of tumor transitions from 0 mm^3 to 100 mm^3)” value is listed as “significant decrease”. For the same substance, the “frank tumors remaining after treatment” value in experiment [4] (one representative mouse, 21 day treatment) is “no frank tumors remaining”.
